Read-outs that look alike come from different tables or passages of the source.
Tests used:
[1] = test system: HCT116 FOP control reporter cell line; test: HCT116 FOP control vector reporter assay (non-functional TCF elements); assay type: cell-based; conditions: HCT116 FOP control reporter cells, luciferase expression, 36 hours incubation, 50 μM to 15 nM, read-out: HCT116 FOPFlash IC50
Experimental: (§1) In a parallel approach, HCT116 cells were cotransfected with the FOP control vector and pcDNA3. The FOP vector is identical to the TOP construct, but it contains instead of functional TCF elements a randomized, non-functional sequence. For this transfection a stable transfected cell line was generated as well.
(§2) In preparation of the assay, the two cell lines were plated 24 hrs before at 10000 cells per well of a 384 micro titre plate (MTP) in 30 μL growth medium. Selective inhibitory activity for small molecules on the mutated Wnt pathway was determined after parallel incubation of both (TOP and FOP) HCT116 reporter cell lines with a compound dilution series from 50 μM to 15 nM in steps of 3.16-fold dilutions in CAFTY buffer (130 mM NaCl, 5 mM KCl, 20 mM HEPES, 1 mM MgCl2, 5 mM NaHCO3, pH 7.4) containing 2 mM Ca^2+ and 0.01% BSA. The compounds were thereby serially prediluted in 100% DMSO and thereafter in addition 50 fold into the CAFTY compound dilution buffer (described above). From this dilution 10 μL were added to the cells in 30 μL growth medium and incubated for 36 hours at 37° C. and 5% CO2. Thereafter luciferase assay buffer (1:1 mixture of luciferase substrate buffer (20 mM Tricine, 2.67 mM MgSO4, 0.1 mM EDTA, 4 mM DTT, 270 μM Coenzyme A, 470 μM Luciferin, 530 μM ATP, ph adjusted to pH 7.8 with a sufficient volume of 5M NaOH) and Triton buffer (30 mL Triton X-100, 115 mL glycerol, 308 mg Dithiothreitol, 4.45 g Na2HPO4.2 H2O, 3.03 g Tris.HCL, ad 1 l H20, pH 7.8) was added as equal volume to the compound solution on the cells to determine luciferase expression as a measure of Wnt signaling activity in a luminometer.

[2] = test system: constitutive active colorectal cancer cell (CRC) Wnt pathway; test: HCT116 Super TopFlash cellular reporter assay (constitutive active Wnt pathway); assay type: cell-based; conditions: HCT116 TOP reporter cells, luciferase expression, 36 hours incubation, 50 μM to 15 nM
Experimental: In order to discover and characterize small molecules which inhibit the constitutive active colorectal cancer cell (CRC) Wnt pathway, a cellular reporter assay was employed. The corresponding assay cell was generated by transfection of the colorectal cancer cell line HCT116 (ATCC, #CCL-247) with the Super TopFlash vector (Morin, Science 275, 1997, 1787-1790; Molenaar et al., Cell 86 (3), 1996, 391-399). The HCT116 cell line is cultivated at 37° C. and 5% CO2 in DMEM/F-12 (Life Technologies, #11320-074), supplemented with 2 mM glutamine, 20 mM HEPES, 1.4 mM pyruvate, 0.15% Na-bicarbonate and 10% foetal bovine serum (GIBCO, #10270), this cancer cell line is pathophysiological relevant since it carries a deletion of position S45 in the β-catenin gene, leading to constitutive active Wnt signaling. Stable transfectants were generated by cotransfection with pcDNA3 and selection of stable transfected cells with 1 mg/ml G418.
as §1, §2

Compound	IC50 ([1]; Homo sapiens, HCT-116, 36 h)	IC50 ([2]; Homo sapiens, HCT-116, 36 h)	IC50 [1]	IC50 [2]
CCC(C(=O)Nc1cc(C(=O)Nc2ccc(-c3ccccc3)cc2)ccc1OC)N1CCOCC1 (single isomer, unassigned) [Example 131, N-(biphenyl-4-yl)-4-methoxy-3-{[(2R*)-2-(morpholin-4-yl)butanoyl)amino} benzamide]	≥ 50000 nM	174 nM		
CCC(C(=O)Nc1cc(C(=O)Nc2ccc(-c3ccccc3)cc2)ccc1OC)N1CCOCC1 (single isomer, unassigned) [Example 132, N-(biphenyl-4-yl)-4-methoxy-3-{[(2S*)-2-(morpholin-4-yl)butanoyl]amino} benzamide]			≥ 50000 nM	310 nM
COCc1ccc(C(=O)Nc2ccc(-c3ccccc3)cc2)cc1NC(=O)C(C)N1CC2CCC(C1)O2 (single isomer, unassigned) [Example 146, N-(biphenyl-4-yl)-4-(methoxymethyl)-3-{[(2R*)-2-(8-oxa-3-azabicyclo[3.2.1]oct-3-yl)propanoyl)amino} benzamide]	27000 nM	9.98 nM		
COCCOCc1ccc(C(=O)Nc2ccc(-c3ccccc3)cc2)cc1NC(=O)C(C)N1CCOCC1 (single isomer, unassigned) [Example 162, N-(biphenyl-4-yl)-4-[(2-methoxyethoxy)methyl]-3-{[(2R*)-2-(morpholin-4-yl)propanoyl)amino} benzamide]	10400 nM	103 nM		
COCCCOCc1ccc(C(=O)Nc2ccc(-c3ccccc3)cc2)cc1NC(=O)C(C)N1CCOCC1 (single isomer, unassigned) [Example 166, N-(biphenyl-4-yl)-4-[(3-methoxypropoxy)methyl]-3-{[(2R*)-2-(morpholin-4-yl)propanoyl]amino} benzamide]	5400 nM			135 nM
COCc1ccc(C(=O)Nc2ccc(-c3ccccc3)cc2)cc1NC(=O)C(C)N1CC2CCC(C1)O2 (single isomer, unassigned) [Example 167, N-(biphenyl-4-yl)-4-(methoxymethyl)-3-{[(2S*)-2-(8-oxa-3-azabicyclo[3.2.1]oct-3-yl)propanoyl]amino} benzamide]	41200 nM	139 nM		
COCc1ccc(C(=O)Nc2ccc(-c3ccccc3)cc2)cc1NC(=O)C(C)N1CCOCC1 (single isomer, unassigned) [Example 169, N-(biphenyl-4-yl)-4-(methoxymethyl)-3-{[(2R*)-2-(morpholin-4-yl)propanoyl]amino} benzamide]	10000 nM	154 nM		

Further lines, results first:

IC50 ([1]; Homo sapiens, HCT-116, 36 h)	IC50 ([2]; Homo sapiens, HCT-116, 36 h)	IC50 [1]	IC50 [2]	Compound
≥ 50000 nM	211 nM			CC(C(=O)Nc1cc(NC(=O)c2ccc(-c3ccccc3)cc2)ccc1C(F)(F)F)N1CCOCC1 (single isomer, unassigned) [Example 172, N-[3-{[(2R*)-2-(morpholin-4-yl)propanoyl]amino}-4-(trifluoromethyl)phenyl] biphenyl-4-carboxamide]
		7500 nM	214 nM	COCc1ccc(C(=O)Nc2ccc(-c3ccccc3)cc2)cc1NC(=O)C(C)N1CCOCC1 (single isomer, unassigned) [Example 173, N-(biphenyl-4-yl)-4-(methoxymethyl)-3-{[(2S*)-2-(morpholin-4-yl)propanoyl]amino} benzamide]
15000 nM	265 nM			COCCOCc1ccc(C(=O)Nc2ccc(-c3ccccc3)cc2)cc1NC(=O)C(C)N1CCOCC1 (single isomer, unassigned) [Example 177, N-(biphenyl-4-yl)-4-[(2-methoxyethoxy)methyl)-3-{[(2S*)-2-(morpholin-4-yl)propanoyl)amino} benzamide]
		7600 nM	300 nM	COCCCOCc1ccc(C(=O)Nc2ccc(-c3ccccc3)cc2)cc1NC(=O)C(C)N1CCOCC1 (single isomer, unassigned) [Example 179, N-(biphenyl-4-yl)-4-[(3-methoxypropoxy)methyl]-3-{[(2S*)-2-(morpholin-4-yl)propanoyl]amino} benzamide]
